Structures are written as SMILES. Where “and” joins values, the source holds several entries; their conditions need not be identical. Identical values can stand only once.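 Values below derive from 48-hour exposures of cells grown in 96-well plates, with endpoints linearly interpolated between the two concentrations bracketing the appropriate inhibition level. GI50 is the concentration that inhibits growth by half. TGI marks complete inhibition of growth.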 Where only a bound is given, the exact number is not on record here.

Among the test systems are KM12 colon; SF-295 CNS; BT-549 breast; SNB-19 CNS; 786-0 renal; UO-31 renal; RXF 393 renal; COLO 205 colon; U251 CNS; RPMI-8226 leukemia.
Assay in all cases: DTP human tumour cell line panel, 48 h

By GI50 is commonly meant the concentration at which growth is held to half of that of the control. A word on the TGI: it is the concentration giving total growth inhibition. Read a low TGI as more potent growth arrest. For the molecule `COc1ccc(-c2c(N)n[nH]c2-c2cc(OC)c(OC)c(OC)c2)cc1`, the GI50 in the experiment on KM12 colon is 0.0594 µM; in the experiment on SF-295 CNS it was 0.0758 µM; with BT-549 breast, 1.41 µM; in the experiment with SNB-19 CNS, 0.403 µM; in the experiment on 786-0 renal, 0.388 µM; in the experiment with UO-31 renal, 0.926 µM. Also, the concentration for 50% growth inhibition (GI50) was 0.239 µM with RXF 393 renal, 0.363 µM in the experiment with COLO 205 colon, 0.276 µM with U251 CNS and 0.331 µM in the experiment with RPMI-8226 leukemia. Moreover, the TGI with KM12 colon was 18 µM; with SF-295 CNS it was above 100 µM; with BT-549 breast, above 29 µM; in the experiment on SNB-19 CNS, above 100 µM; in the experiment on 786-0 renal it was 35.6 µM; with UO-31 renal, above 68.7 µM. In addition, the TGI is 0.74 µM in the experiment with RXF 393 renal, above 100 µM in the experiment on U251 CNS and 22.5 µM in the experiment on RPMI-8226 leukemia.
On to `NS(=O)(=O)c1ccc(NC(=O)Nc2ccccc2F)cc1`, for which the TGI with KM12 colon, with SF-295 CNS, with BT-549 breast, with SNB-19 CNS, with 786-0 renal and with UO-31 renal was above 100 µM throughout. For the same molecule, the TGI with RXF 393 renal, with COLO 205 colon, with U251 CNS and in the experiment on RPMI-8226 leukemia was above 100 µM throughout.
In the case of `O=C(O)C(=O)CBr`, the GI50 was > 100 µM and 19 µM in the experiment with KM12 colon; above 100 µM with SF-295 CNS; > 47.6 µM and 20 µM in the experiment with BT-549 breast; above 100 µM in the experiment with SNB-19 CNS; 16.9 µM and 21.7 µM with 786-0 renal; > 38 µM and 17.3 µM in the experiment on UO-31 renal. In addition, the GI50 in the experiment with RXF 393 renal is 64 µM and 17 µM; in the experiment with COLO 205 colon, > 70.1 µM and 17.6 µM; in the experiment with U251 CNS, > 100 µM and 21.6 µM; with RPMI-8226 leukemia, > 48.9 µM and 26.8 µM. The TGI in the experiment on KM12 colon is > 100 µM and 34.5 µM; with SF-295 CNS, above 100 µM; with BT-549 breast, > 77.9 µM and 35.2 µM; with SNB-19 CNS it was above 100 µM; with 786-0 renal, 31.3 µM and 36.5 µM; in the experiment on UO-31 renal it was > 54.7 µM and 31.8 µM. The TGI in the experiment on RXF 393 renal is > 100 µM and 31 µM; in the experiment with COLO 205 colon, > 100 µM and 39.5 µM; in the experiment on U251 CNS, > 100 µM and 42.9 µM; in the experiment with RPMI-8226 leukemia, > 73.5 µM and 55.6 µM.
As to `O=[As]c1ccc(C(=O)c2ccc(Oc3ccccc3)cc2)cc1` (centres undefined), the GI50 is 0.0532 µM in the experiment with KM12 colon; 0.15 µM in the experiment on SF-295 CNS; 0.135 µM in the experiment with BT-549 breast; 0.0651 µM with SNB-19 CNS; 0.0576 µM in the experiment on 786-0 renal; 0.0695 µM with UO-31 renal. For the same molecule, the GI50 in the experiment with RXF 393 renal is 0.0404 µM; in the experiment on COLO 205 colon, 0.0494 µM; with U251 CNS it was 0.0181 µM; with RPMI-8226 leukemia it was 0.0267 µM. Further, the TGI in the experiment with KM12 colon came out at 0.177 µM; in the experiment on SF-295 CNS it was 0.327 µM; in the experiment with BT-549 breast, 0.278 µM; in the experiment with SNB-19 CNS, 0.187 µM; in the experiment on 786-0 renal it was 0.166 µM; with UO-31 renal, 0.208 µM. The TGI in the experiment with RXF 393 renal came to 0.143 µM; in the experiment on COLO 205 colon, 0.169 µM; in the experiment with U251 CNS, 0.0586 µM; with RPMI-8226 leukemia it was 0.105 µM.
Regarding `CCOC(=S)SCN1C(=O)c2ccccc2S1(=O)=O`, the GI50 in the experiment with KM12 colon was 35 µM; with SF-295 CNS, 18 µM; with BT-549 breast, 16 µM; in the experiment on SNB-19 CNS, 28.7 µM; in the experiment with 786-0 renal, 20.9 µM; in the experiment on UO-31 renal it was 14.3 µM. Moreover, the GI50 was 6.97 µM in the experiment with RXF 393 renal, 2.94 µM in the experiment with COLO 205 colon, 18.7 µM in the experiment with U251 CNS and 12.8 µM in the experiment with RPMI-8226 leukemia. Moreover, the TGI with KM12 colon was above 100 µM; with SF-295 CNS, 59.2 µM; in the experiment with BT-549 breast it was 38.4 µM; in the experiment with SNB-19 CNS, 88.8 µM; in the experiment with 786-0 renal, 47.9 µM; in the experiment with UO-31 renal, 29.4 µM. The TGI with RXF 393 renal is 21.6 µM; in the experiment on COLO 205 colon it was 11.2 µM; with U251 CNS, 37.3 µM; in the experiment on RPMI-8226 leukemia, 38.2 µM.
As for `O=C1c2ccccc2-c2c1c1ccccc1c(=O)n2-c1ccccc1`, the TGI is above 100 µM with KM12 colon; 23.6 µM in the experiment on SF-295 CNS; above 52 µM with BT-549 breast; 20.4 µM in the experiment on SNB-19 CNS; 10.6 µM in the experiment with 786-0 renal; 23.5 µM in the experiment on UO-31 renal. The TGI with RXF 393 renal was 15 µM; with COLO 205 colon, above 100 µM; in the experiment with U251 CNS it was 39.9 µM; with RPMI-8226 leukemia, above 100 µM.
`Cc1cc(O)cc2c1c(=O)c1ccccc1n2C`: the TGI with KM12 colon, with SF-295 CNS, with BT-549 breast, in the experiment on SNB-19 CNS, with 786-0 renal and in the experiment with UO-31 renal was above 100 µM each time. The TGI in the experiment on RXF 393 renal, in the experiment with COLO 205 colon, with U251 CNS and with RPMI-8226 leukemia was above 100 µM throughout.
As for `O=C(Nc1cc(-c2cccnc2)nc(NCCCN2CCOCC2)n1)c1cc(Br)cc(C(F)(F)F)c1`, the GI50 is 3.62 µM with KM12 colon; 1.94 µM in the experiment with SF-295 CNS; 3.27 µM with BT-549 breast; 2.5 µM in the experiment on SNB-19 CNS; 1.55 µM in the experiment with 786-0 renal; 1.4 µM in the experiment with UO-31 renal. Also, the GI50 is 1.8 µM in the experiment with RXF 393 renal, 1.77 µM in the experiment with COLO 205 colon, 2.05 µM with U251 CNS and 3.15 µM with RPMI-8226 leukemia. For the same molecule, the TGI was 13.6 µM in the experiment with KM12 colon; 3.93 µM in the experiment on SF-295 CNS; 15 µM in the experiment on BT-549 breast; 5.75 µM in the experiment with SNB-19 CNS; 3.17 µM with 786-0 renal; 3.39 µM in the experiment with UO-31 renal. For the same molecule, the TGI with RXF 393 renal is 3.61 µM; in the experiment on COLO 205 colon, 3.47 µM; with U251 CNS it was 4.3 µM; with RPMI-8226 leukemia, 9.69 µM.
For the molecule `Nc1c(C(=O)Nc2cccc(Br)c2)sc2nc3c(cc12)C(O)CCC3` (centres undefined), the GI50 in the experiment on KM12 colon was 0.399 µM; in the experiment on SF-295 CNS, 0.314 µM; with BT-549 breast it was 0.972 µM; with SNB-19 CNS, 2.52 µM; with 786-0 renal it was 0.645 µM; with UO-31 renal, 0.685 µM. The GI50 with RXF 393 renal is 0.361 µM; in the experiment with COLO 205 colon it was 0.41 µM; in the experiment with U251 CNS, 0.487 µM; in the experiment on RPMI-8226 leukemia it was 0.404 µM. Also, the TGI was above 51 µM with KM12 colon; 16.2 µM in the experiment with SF-295 CNS; above 75.3 µM with BT-549 breast; 53.9 µM with SNB-19 CNS; 36.1 µM with 786-0 renal; 40.3 µM in the experiment with UO-31 renal. In addition, the TGI in the experiment with RXF 393 renal was 6.26 µM; in the experiment with COLO 205 colon, above 32 µM; in the experiment with U251 CNS, 20.4 µM; in the experiment on RPMI-8226 leukemia it was 23.5 µM.
As for `CCOC(=O)Cc1csc(NC(=O)COC(=O)c2ccc(OC)cc2)n1`, the GI50 in the experiment on KM12 colon was above 83.6 µM; with SF-295 CNS it was above 100 µM; in the experiment with BT-549 breast, 24.7 µM; in the experiment with SNB-19 CNS, above 100 µM; in the experiment on 786-0 renal, 35.7 µM; with UO-31 renal, 5.76 µM. The GI50 with RXF 393 renal is above 70.8 µM; with COLO 205 colon it was above 95.9 µM; in the experiment with U251 CNS, 43.3 µM; with RPMI-8226 leukemia it was 12.5 µM. In addition, the TGI in the experiment with KM12 colon is above 100 µM; in the experiment with SF-295 CNS it was above 100 µM; with BT-549 breast, 66.3 µM; in the experiment with SNB-19 CNS, above 100 µM; in the experiment on 786-0 renal, above 57.6 µM; in the experiment with UO-31 renal, 11.1 µM. Further, the TGI in the experiment on RXF 393 renal was above 100 µM; with COLO 205 colon it was above 100 µM; in the experiment on U251 CNS it was above 100 µM; with RPMI-8226 leukemia, 33.5 µM.
On to `CCCCCc1c(C)[nH]c(/C=C2\N=C(c3ccc[nH]3)C=C2OCc2ccccc2)c1C`, for which the GI50 is 0.0352 µM and 0.0246 µM in the experiment with KM12 colon; 0.0689 µM and 0.0431 µM with SF-295 CNS; 0.234 µM and 0.119 µM in the experiment with BT-549 breast; 0.21 µM and 0.112 µM in the experiment on SNB-19 CNS; 0.052 µM and 0.0348 µM with 786-0 renal; 0.103 µM and 0.0318 µM with UO-31 renal. Also, the GI50 was 0.0697 µM and 0.0473 µM with RXF 393 renal; 0.0436 µM and 0.026 µM in the experiment with COLO 205 colon; 0.0289 µM and 0.0239 µM in the experiment on U251 CNS; 0.0343 µM and 0.0301 µM with RPMI-8226 leukemia. The TGI with KM12 colon was 1.04 µM and 0.262 µM; in the experiment on SF-295 CNS it was 0.337 µM and 0.292 µM; in the experiment on BT-549 breast it was 1.78 µM and 1.18 µM; in the experiment on SNB-19 CNS it was 1.96 µM; in the experiment on 786-0 renal, 0.378 µM and 0.226 µM; in the experiment with UO-31 renal, 0.282 µM and 0.128 µM. Besides, the TGI in the experiment with RXF 393 renal was 0.768 µM and 0.374 µM; with COLO 205 colon, 0.661 µM and 0.159 µM; in the experiment with U251 CNS it was 0.195 µM and 0.122 µM; with RPMI-8226 leukemia, 0.235 µM and 0.317 µM.
Turning to `Cc1c(C(=O)O[C@H]2[C@@H]3[C@H](C)CC[C@H]3[C@]3(C)O[C@@]2(C2CCCCC2)C[C@H]3OC(=O)CO)ccc2ccccc12`, the GI50 was 8.35 µM with KM12 colon; 7.04 µM with SF-295 CNS; 5.28 µM with BT-549 breast; 8.56 µM in the experiment on SNB-19 CNS; 6.52 µM with 786-0 renal; 0.408 µM in the experiment with UO-31 renal. In addition, the 50% growth inhibitory concentration (GI50) in the experiment with RXF 393 renal was 0.164 µM; in the experiment with COLO 205 colon, 9.2 µM; in the experiment with U251 CNS, 7.43 µM; with RPMI-8226 leukemia, 8.89 µM. In addition, the TGI in the experiment with KM12 colon stood at 17.4 µM; in the experiment with SF-295 CNS, 13.6 µM; with BT-549 breast it was 12.7 µM; in the experiment with SNB-19 CNS, 15.6 µM; in the experiment on 786-0 renal, 13.1 µM; with UO-31 renal, 7.96 µM. Besides, the TGI with RXF 393 renal worked out at 7.12 µM; in the experiment with COLO 205 colon it was 17.5 µM; in the experiment with U251 CNS, 13.9 µM; with RPMI-8226 leukemia, 20.6 µM.
